# Assay results: ChEMBL document CHEMBL3045457, “Synthesis and insecticidal activity of N-substituted (1,3-thiazole)alkyl sulfoximine derivatives” (2008)
# Test system: Myzus persicae
# Test: Insecticidal activity against Myzus persicae (green peach aphid) in horsebean shoot assessed as mortality at 10 mg/l at 25 +/-1 degC treated for 2 secs measured after 16 hr
# Format: functional
row,Compound,mortality at 10 µg/mL
1,CS(=O)(Cc1ccc(Cl)nc1)=NC#N (configuration not stated),100%
2,CS(=O)(Cc1cnc(Br)s1)=NC#N (configuration not stated),93%
3,CCOc1nc(C(F)(F)F)c(CS(C)(=O)=NC#N)s1 (configuration not stated),68%
4,Cc1nc(Cl)sc1CS(C)(=O)=NC#N (configuration not stated),0%
5,CS(=O)(Cc1cnc(Cl)s1)=NC#N (configuration not stated),75%
6,CS(=O)(Cc1sc(Cl)nc1C(F)(F)F)=NC#N (configuration not stated),100%
7,CS(=O)(Cc1sc(Br)nc1C(F)(F)F)=NC#N (configuration not stated),48%
